Reference: patent publication US9637471B2, “Hydroxyindalpine derivatives and their medical use” (Technische Universitat Munchen, priority 2013, dated 2017)

Legend:
[1] = Retention of activity after storage (chemical stability); assay type: physicochemical; conditions: storage for 15 months as a solid at 4° C. or in solution frozen at −20° C.
5-HT1P receptor = assay: Neuronal tissue assay: voltage-sensitive dye neuroimaging of human submucous plexus preparations; assay type: cell-based
Description: The effect of 5-BOIP was tested on freshly dissected submucous plexus preparations from surgical resections of human intestine. Samples were taken from macroscopically unaffected areas. Procedures were approved by the ethics committees of the Technical University Munich (1748/07 and 2595/09). Segments were dissected in ice cold Krebs solution to obtain mucosa/submucosa preparations containing the inner submucous plexus preparations for the imaging experiments.
In order to image the activity of enteric neurons using voltage sensitive dyes, the human submucous plexus preparations were placed into a recording chamber which was continuously perfused at 37° C. with oxygenated Krebs solution containing 117 mM NaCl, 4.7 mM KCl, 1.2 mM MgCl2, 1.2 mM NaH2PO4, 20 mM NaHCO3, 2.5 mM CaCl2, 11 mM glucose (pH 7.4). The neuroimaging set-up allowed to monitor membrane potential changes and changes in intracellular Ca^2+ [Ca]i transients in all cells of a given ganglion. To study membrane potential changes, individual ganglia were stained with the voltage-sensitive dye Di-8-ANEPPS (20 μM; Molecular Probes, Eugene, Oreg., USA) via intraganglionic application through a microejection pipette.
The imaging experiments were conducted on an inverted microscope (Zeiss Axio Observer.A1; Munich, Germany) equipped with the NeuroCCD system, consisting of a fast CCD camera (80×80 pixels) and the Neuroplex software for data acquisition and analysis (RedShirtImaging, Decatur, Ga., USA). To detect Di-8-ANEPPS a modified Cy3 filterset (545±15 nm excitation, 565 nm dichroic mirror, 580 nm barrier; Ahf Analysentechnik, Tübingen, Germany) was used. A green LED (LE T S2W, Osram, Munich, Germany) was used to excite Di-8-ANEPPS. Visualization of the ganglia and recording of signals were done with a ×100 or ×40 objective (NA=1.35, Olympus, Hamburg, Germany). The imaging set-up allowed to measure relative changes in the fluorescence (ΔF/F), which is for Di-8-ANEPPS linearly related to changes in the membrane potential. Frame rate to detect action potentials was 1 kHz. The overlay of signals and ganglion images allowed the analysis of the responses of individual cells.
5-BOIP was prepared at a stock solution of 100 mM. For controlled local application fine glass capillaries were filled with 50 μM 5-BOIP and positioned just above a ganglion. 5-BOIP was microejected for 400 ms via pressure pulse onto the ganglion. […] Since G protein coupled receptor activation takes several seconds, the recordings were started after a period of 2 s. In preliminary experiments it was verified that there was no immediate effect of 5-BOIP that would begin with the ejection application or directly thereafter.
The specificity of 5-BOIP effects was tested against the 5-HT1 antagonist 5-hydroxytryptophan dipeptide (5-HTP-DP). […]

[2] = system: circular muscle strips from the guinea pig stomach; assay: Nerve mediated muscle responses to electrical field stimulation (EFS) in circular muscle strips, organ bath; assay type: cell-based; conditions: 10 μM in organ bath, EFS after 20 min
Description: The effects of 5-BOIP and homo-5-BOIP were tested in tissue preparations from the guinea pig stomach. After sacrificing the guinea pigs, the stomach was removed and immediately placed in ice-cold oxygenated Krebs solution. The stomach was opened along the greater curvature, thoroughly washed and pinned mucosal side up in Sylgard-coated Petri dishes. The mucosa was then carefully removed. Muscle strips (1.5 cm^2) were cut parallel to the circular muscle and mounted in 25 ml organ baths where they were maintained in oxygenated Krebs solution at 37° C. One edge of each muscle strip was attached to an isometric tension transducer (PowerLab, AD Instruments, Spechbach, Germany).
After mounting in the organ baths, tissues were equilibrated with a preload set at 15 mN for 45 min. Then, electrical field stimulations (EFS) were performed (constant current, 100 mA, pulse frequency 10 Hz, pulse width of 0.5 ms, 10 s). With the chosen parameters for the EFS, only the neuronal tissue in the preparation was stimulated without having a direct effect on the smooth muscle. […]
After reaching stable responses to the EFS, 5-BOIP and homo-5-BOIP were added to the organ baths at a final concentration of 10 μM. […] The responses to the EFS under control conditions and in the presence of 5-BOIP or homo-5-BOIP were analyzed later.

mouse isolated colon = conditions: cited from earlier work

Structure (SMILES) | activity after storage [1] | action potential (spike) frequency (5-HT1P receptor; 5-BOIP alone, 50 μM in capillary microejected 400 ms onto ganglion, median (10%/90%)) | effect on human enteric nerve cells when applied to the ganglia (5-HT1P receptor; 5-BOIP applied to ganglia, human submucous plexus) | action potential (spike) frequency in presence of 5-HT1P receptor antagonist 5-HTP-DP (5-HT1P receptor; 5-BOIP during 20 min bath application of 10 μM 5-HTP-DP, median (10%/90%)) | action potential (spike) frequency after washing out the antagonist 5-HTP-DP (5-HT1P receptor; 5-BOIP freshly added after washout of 5-HTP-DP, median (10%/90%)) | effect on the "on contraction" in response to the EFS [2] | effect on threshold pressure required to trigger the peristaltic reflex (mouse isolated colon) | effect on peristalsis (mouse isolated colon; concentration dependent)
c1ccc(COc2ccc3[nH]cc(CCC4CCNCC4)c3c2)cc1 [5-BOIP, 5-(benzyloxy)-3-(2-(piperidin-4-yl)ethyl)-1H-indole] | retains activity | 1.6 (1.0/2.1) Hz | induces action potentials | 0 (0/0.5) Hz | 1.0 (0.5/1.6) Hz | clearly reduced |  | 
Oc1ccc2[nH]cc(CCC3CCNCC3)c2c1 [5-OHIP, 5-hydroxyindalpine] | would lose its activity |  |  |  |  |  | reduce the threshold pressure | accelerate peristalsis
c1ccc(COc2ccc3[nH]cc(CCCC4CCNCC4)c3c2)cc1 [homo-5-BOIP, 5-(benzyloxy)-3-(3-[piperidin-4-yl]propyl)-1H-indole] |  |  |  |  |  | clearly reduced |  | 
